≈ marks a conversion by molar mass, not a printed value. Where “and” joins values, the source holds several entries; their conditions need not be identical. Equal values may be shown once. Read-outs that look alike come from different tables or passages of the source. Non-standard residues stand in square brackets, D forms with d. Residues, ends and D or L forms follow the SMILES beside them. dPhe(4-Cl) = N[C@H](Cc1ccc(Cl)cc1)C(=O)O; dOrn = NCCC[C@@H](N)C(=O)O
Columns and labels:
[1] = Intrinsic clearance (CLint) assay, human liver microsomes; format: in vitro ADME; details: for half-life at 0.5 µM: human, pooled human liver microsomes; for CLint Human: human liver microsomes; for CLpred Human: predicted metabolic clearance
In short: (§1)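 Pooled liver microsomes (0.5 mg/mL protein) with test compound at 0.5 μM (0.5% DMSO), 5 mM MgCl2 and pH 7.4 phosphate buffer were run at 37°C; 1 mM NADPH started the reaction. Samples at 0-45 min were analysed by LC-MS/MS; t1/2 and CLint were derived from the ln peak-area-ratio slope.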

[2] = test system: intracellular mycobacterial survival in murine bone marrow-derived macrophages; set-up: method as in PMID 25229313; details: cited from earlier work
[3] = Plasma stability assay, human plasma; format: in vitro ADME; details: for remaining at 2 h, 1 uM: human, plasma
Protocol: (§2) Plasma stability of the compounds was assessed in CD1 mouse and human plasma. Plasma was spiked with 1 μL of a 10 mM of each test compound solution to produce a 1 uM incubation. Three separate 300 μl aliquots were then taken from each tube and incubated at 37°C for 2 h. At each time point (0, 15, 30, 60 and 120 min), 50 μL of plasma were collected from each sample. Samples were extracted by protein precipitation with 250 μL of 0.1% AcOH acetonitrile methanol 3–1 (v/v) containing 1uM internal standard and centrifuged for 10min at 2800rpm. Supernatants were collected prior the injection onto an LC-MS/MS system. Analyte/Internal standard peak area ratios were referenced to the zero time-point samples as 100% in order to determine the percentage of compound remaining for each time-point. Ln plots of the % remaining for each compound were used to determine the half-life for the plasma incubations.

human serum albumin [4] = target: T1, human serum albumin (Homo sapiens, UniProt P02768); experiment: Human serum albumin (HSA) binding assay; format: in vitro ADME; details: for % HSA: human serum albumin binding
T1 sequence (P02768 25-609): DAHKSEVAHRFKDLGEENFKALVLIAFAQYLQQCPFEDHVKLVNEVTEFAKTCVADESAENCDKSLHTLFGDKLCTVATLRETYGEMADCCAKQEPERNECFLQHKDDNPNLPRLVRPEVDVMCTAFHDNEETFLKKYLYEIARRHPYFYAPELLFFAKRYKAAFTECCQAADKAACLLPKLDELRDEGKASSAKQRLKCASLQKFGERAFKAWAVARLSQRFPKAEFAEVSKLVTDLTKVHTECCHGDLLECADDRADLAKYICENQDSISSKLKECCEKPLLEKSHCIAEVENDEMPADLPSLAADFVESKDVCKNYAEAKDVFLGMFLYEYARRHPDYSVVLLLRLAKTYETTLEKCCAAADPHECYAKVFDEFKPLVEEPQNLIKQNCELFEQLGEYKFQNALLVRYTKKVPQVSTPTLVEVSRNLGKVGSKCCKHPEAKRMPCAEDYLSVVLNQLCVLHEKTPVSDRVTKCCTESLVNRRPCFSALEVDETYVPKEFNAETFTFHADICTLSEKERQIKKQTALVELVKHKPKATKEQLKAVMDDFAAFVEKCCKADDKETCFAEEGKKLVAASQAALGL
In short: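 Gradient retention times measured on an immobilized HSA HPLC column with UV detection. Retention times converted to HSA binding values by a linear calibration against reference compounds of known binding, run before each batch.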

[5] = Plasma stability assay, mouse plasma; format: in vitro ADME; details: for remaining at 2 h, 1 uM: CD1, mouse, plasma
Protocol: as §2

[6] = Artificial membrane permeability assay; format: in vitro ADME; details: PAMPA, pH 7.4
In short: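 PAMPA using L-α-phosphatidylcholine in cholesterol decane as the membrane, with 50 mM phosphate buffer containing 0.5% encapsin at pH 7.4 on both sides. Compound added to donor; plates shaken 3 h at room temperature in duplicate. Donor and receiver concentrations measured by HPLC; permeability reported in nm/sec.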

[7] = Chemi-Luminescent Nitrogen Detection (CLND) kinetic solubility assay; format: physicochemical; details: phosphate buffered saline, pH 7.4
In short: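 10 mM DMSO stock diluted 5 μL into 100 uL pH 7.4 phosphate buffered saline, equilibrated 1 h at room temperature, then filtered. Filtrate quantified by calibrated flow-injection CLND; standard error ±30 μM, upper limit 500 μM.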

[8] = Intrinsic clearance (CLint) assay, mouse liver microsomes; format: in vitro ADME; details: for half-life at 0.5 µM: mouse, pooled mouse liver microsomes, pH 7.4; for CLint Mouse: mouse liver microsomes; for CLpred Mouse: predicted metabolic clearance
In short: as §1

Chrom logD assay = format: physicochemical
In short: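 Reversed-phase C18 HPLC with fast acetonitrile gradient starting from 100% pH 7.4 buffer; CHI from retention times via calibration standards. ChromlogD = 0.0857CHI − 2.00; assay error ±3 CHI or ±0.25 ChromlogD.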

M. bovis = details: cited from earlier work
Mtb H37Rv = details: for MIC against Mtb H37Rv: duplicate, analogues
human serum albumin [9] = target: T1, human serum albumin; experiment: HPLC retention on an immobilised HSA column; HSA immobilised on the column; gradient retention times of the compounds converted to % HSA binding by a calibration set of compounds of known HSA binding; UV detection
mycobacteria = test system: mycobacteria; set-up: method as in PMID 25229313; details: cited from earlier work
[10] = pH 7.4, human liver microsomes, read-out: Microsomal t1/2 Human
[11] = 2 hours at 37°C, triplicates, read-out: Plasma stability (% remaining) Human
[12] = 2 hours at 37°C, triplicates, read-out: Plasma stability (% remaining) Mouse
[13] = passive artificial membrane permeability, read-out: Permeability
[14] = kinetic aqueous solubility by CLND, read-out: Solubility
[15] = read-out: Microsomal t1/2 Mouse

| Compound | CLint Human [1] | half-life at 0.5 µM [1, 10] | % LBF Human ([1]; liver blood flow) | CLpred Human [1] | remaining at 2 h, 1 uM [3, 11] | % HSA (human serum albumin [4]) | remaining at 2 h, 1 uM [5, 12] | Papp at 3 h [6, 13] | solubility kinetic at 1 h [7, 14] | % LBF Mouse ([8]; liver blood flow) | CLint Mouse [8] | half-life at 0.5 µM [8, 15] | CLpred Mouse [8] | chromatographic logD (Chrom logD assay; pH 7.4, read-out: Log D) | MIC against Mtb H37Rv (Mtb H37Rv) | further results |
| --- | --- | --- | --- | --- | --- | --- | --- | --- | --- | --- | --- | --- | --- | --- | --- | --- |
| CC(C)C[C@@H]1NC(=O)[C@H](Cc2c[nH]c3ccccc23)NC(=O)[C@@H](CCCN)NC(=O)[C@H](CC(N)=O)NC(=O)[C@H](C(C)C)NC(=O)[C@@H](CC(C)C)NC1=O [Compound 1c, wollamide B] (cyclo([dOrn]WL[dL]VN)) |  |  |  |  |  |  |  |  |  |  |  |  |  |  |  | IC50: 56 µM; Human CLint ([1]; Table 1): 0.97 mL/min/g; half-life at 0.5 µM ([1]; pH 7.4, Table 1, read-out: Human microsomal half-life): 0.947 h; Human predicted % LBF ([1]; liver blood flow, Table 1): 56.88%; % LBF given as a fraction (metabolic stability class) ([1]; predicted hepatic clearance, microsomal stability): 1/2; intracellular mycobacterial survival [2]: reduce the intracellular mycobacterial survival; Plasma stability (% remaining), Human Plasma ([3]; 2 h at 37°C, Table 1): More than 90 % remaining; remaining at 2 h, 1 uM ([3]; 2 h at 37°C, Table 1, read-out: Plasma stability (% remaining), Human Plasma): 100%; % Human serum albumin binding (human serum albumin [4]; Table 1): 73% and 72.66%; Plasma stability (% remaining), Mouse plasma ([5]; 2 h at 37°C, Table 1): More than 90 % remaining; remaining at 2 h, 1 uM ([5]; 2 h at 37°C, Table 1, read-out: Plasma stability (% remaining), Mouse plasma): 90%; Papp at 3 h ([6]; Table 1, read-out: Artificial membrane permeability): < 0.3 ×10⁻⁶ cm/s; solubility kinetic at 1 h ([7]; kinetic aqueous solubility, Table 1, read-out: Solubility CLND): 151 µg/mL (≈ 204 µM); Mouse CLint ([8]; Table 1): <0.50 mL/min/g; Mouse predicted % LBF ([8]; liver blood flow, Table 1): <16.83%; half-life at 0.5 µM ([8]; Table 1, read-out: Mouse microsomal half-life): > 2.31 h; chromatographic logD (Chrom logD assay; pH 7.4, Table 1, read-out: Log D pH = 7.4): 1.8; IC50 (M. bovis): 3.1 µM; Mtb H37Rv MIC (Mtb H37Rv; Table 1): 0.6 µM |
| wollamide B (peptide) |  |  |  |  |  |  |  |  |  |  |  |  |  |  |  | % Human serum albumin binding (human serum albumin [9]): 72.7% |
| desotamide B |  |  |  |  |  |  |  |  |  |  |  |  |  |  |  | antimycobacterial activity (mycobacteria): no antimycobacterial activity |
| CC(C)C[C@@H]1NC(=O)[C@H](Cc2c[nH]c3ccccc23)NC(=O)[C@@H](CCCN)NC(=O)[C@H](CC(N)=O)NC(=O)[C@H](C)NC(=O)[C@@H](CC(C)C)NC1=O [Compound 5c] (cyclo(AN[dOrn]WL[dL])) | <0.40 mL/min/g tissue | > 2.31 h | <35.08% | 6.31 mL/min/kg | 98% | 56.76% | 96% | < 1 ×10⁻⁶ cm/s | 129 µg/mL (≈ 181 µM) | <16.27% | <0.48 mL/min/g tissue | > 2.31 h | <20.50 mL/min/kg | 1.32 | >80 µM |  |
| CC(C)C[C@@H]1NC(=O)[C@@H](Cc2ccc(Cl)cc2)NC(=O)[C@@H](CCCN)NC(=O)[C@H](CC(N)=O)NC(=O)[C@H](C(C)C)NC(=O)[C@@H](CC(C)C)NC1=O [Compound 14c] (cyclo(L[dL]VN[dOrn][dPhe(4-Cl)])) | <0.40 mL/min/g tissue | > 2.31 h | <35.08% | 6.31 mL/min/kg | 104% | 70.25% | 70% | < 1 ×10⁻⁶ cm/s | ≥ 218 µg/mL | <16.27% | <0.48 mL/min/g tissue | > 2.31 h | <20.50 mL/min/kg | 1.9 | 40 µM (≈ 29.4 µg/mL) |  |
| CC(C)C[C@@H]1NC(=O)[C@H](Cc2c[nH]c3ccccc23)NC(=O)[C@@H](CCCN)NC(=O)[C@H](CC(N)=O)NC(=O)[C@H](C(C)C)NC(=O)[C@@H](C)NC1=O [Compound 6c] (cyclo(L[dA]VN[dOrn]W)) | 0.73 mL/min/g tissue | 1.25 h | 49.94% | 8.99 mL/min/kg | 95% | 42.21% | 102% | < 1 ×10⁻⁶ cm/s | ≥ 196 µg/mL | <16.27% | <0.48 mL/min/g tissue | > 2.31 h | <20.50 mL/min/kg | 1.04 | >80 µM |  |

Reference: paper PMC5397059, “Design, synthesis and structure-activity relationship study of wollamide B; a new potential anti TB agent” (PLoS ONE, 2017)
